# Results as given in the supplement of paper PMC11061612.
# Legend:
# [1] = test system: RPMI-8402 (T-Lymphoblastic Leukemia); test: combination Emax (second highest fraction inhibited in the dose matrix, 72 h); higher = more inhibition; extreme values may be limits of the assay
# Method in brief: (§1)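 Cell lines in DMEM/F12 or RPMI with 10% FBS were plated in 1536-well plates, held 24 hours at 37°C, 5% CO2, then given two-drug dose matrices for 72 hours (DMSO typically 0.2%). Viability was read by CellTiter-Glo 2.0 luminescence and scaled as inhibition from 0 (vehicle wells) to 1 (blank wells). Combination Emax is the second-highest inhibition in the matrix; Bliss excess is observed combination effect minus expected EA + EB − EA·EB, EA and EB being single-agent effects.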
# [2] = test system: MRK-nu-1 (Breast Carcinoma); test: as above
# Method in brief: as §1
# [3] = test system: CAL-85-1 (Breast Carcinoma); test: as above
# Method in brief: as §1
# [4] = test system: SBC-3 (Small Cell Lung Carcinoma); test: as above
# Method in brief: as §1
# [5] = test system: SW1463 (Colorectal Carcinoma); test: as above
# Method in brief: as §1
# [6] = test system: NCI-H2009 (Lung Adenocarcinoma); test: as above
# Method in brief: as §1
# A375 (Melanoma) [7] = test: as above
# Method in brief: as §1
# [8] = test system: NTERA-2-cl-D1 (Other Solid Carcinomas); test: as above
# Method in brief: as §1
# NCI-H2452 (Mesothelioma) [9] = test: as above
# Method in brief: as §1
# [10] = test system: BC-1 (B-Cell Non-Hodgkin's Lymphoma); test: as above
# Method in brief: as §1
# [11] = test system: OVKATE (Ovarian Carcinoma); test: as above
# Method in brief: as §1
# [12] = test system: NCI-H1648 (Lung Adenocarcinoma); test: as above
# Method in brief: as §1
# [13] = test system: L-363 (Plasma Cell Myeloma); test: as above
# Method in brief: as §1
# GCIY (Gastric Carcinoma) [14] = test: as above
# Method in brief: as §1
# [15] = test system: NCI-H2023 (Non-Small Cell Lung Carcinoma); test: as above
# Method in brief: as §1
# C32 (Melanoma) [16] = test: as above
# Method in brief: as §1
# [17] = test system: NCI-H835 (Other Solid Carcinomas); test: as above
# Method in brief: as §1
# [18] = test system: COR-L105 (Lung Adenocarcinoma); test: as above
# Method in brief: as §1
# SK-MEL-24 (Melanoma) [19] = test: as above
# Method in brief: as §1
# [20] = test system: KNS-62 (Squamous Cell Lung Carcinoma); test: as above
# Method in brief: as §1
# [21] = test system: MDA-MB-175-VII (Breast Carcinoma); test: as above
# Method in brief: as §1
# [22] = test system: NCI-H1435 (Non-Small Cell Lung Carcinoma); test: as above
# Method in brief: as §1
# MG-63 (Osteosarcoma) [23] = test: as above
# Method in brief: as §1
# [24] = test system: RPMI-8402 (T-Lymphoblastic Leukemia); test: Bliss excess, mean over the matrix (fraction); higher = more synergy
# Method in brief: as §1
# [25] = test system: MRK-nu-1 (Breast Carcinoma); test: as above
# Method in brief: as §1
# [26] = test system: CAL-85-1 (Breast Carcinoma); test: as above
# Method in brief: as §1
# [27] = test system: SBC-3 (Small Cell Lung Carcinoma); test: as above
# Method in brief: as §1
# [28] = test system: SW1463 (Colorectal Carcinoma); test: as above
# Method in brief: as §1
# [29] = test system: NCI-H2009 (Lung Adenocarcinoma); test: as above
# Method in brief: as §1
# A375 (Melanoma) [30] = test: as above
# Method in brief: as §1
# [31] = test system: NTERA-2-cl-D1 (Other Solid Carcinomas); test: as above
# Method in brief: as §1
# NCI-H2452 (Mesothelioma) [32] = test: as above
# Method in brief: as §1
# [33] = test system: BC-1 (B-Cell Non-Hodgkin's Lymphoma); test: as above
# Method in brief: as §1
# [34] = test system: OVKATE (Ovarian Carcinoma); test: as above
# Method in brief: as §1
# [35] = test system: NCI-H1648 (Lung Adenocarcinoma); test: as above
# Method in brief: as §1
# [36] = test system: L-363 (Plasma Cell Myeloma); test: as above
# Method in brief: as §1
# GCIY (Gastric Carcinoma) [37] = test: as above
# Method in brief: as §1
# [38] = test system: NCI-H2023 (Non-Small Cell Lung Carcinoma); test: as above
# Method in brief: as §1
# C32 (Melanoma) [39] = test: as above
# Method in brief: as §1
# [40] = test system: NCI-H835 (Other Solid Carcinomas); test: as above
# Method in brief: as §1
# [41] = test system: COR-L105 (Lung Adenocarcinoma); test: as above
# Method in brief: as §1
# SK-MEL-24 (Melanoma) [42] = test: as above
# Method in brief: as §1
# [43] = test system: KNS-62 (Squamous Cell Lung Carcinoma); test: as above
# Method in brief: as §1
# [44] = test system: MDA-MB-175-VII (Breast Carcinoma); test: as above
# Method in brief: as §1
# [45] = test system: NCI-H1435 (Non-Small Cell Lung Carcinoma); test: as above
# Method in brief: as §1
# MG-63 (Osteosarcoma) [46] = test: as above
# Method in brief: as §1
# 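Wherever Bliss excess, mean over the matrix is given: after 72 h of two-drug dosing.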
structure (smiles),measurement,setting,value
"C[C@@H](Oc1cc(-c2cnn(C3CCNCC3)c2)cnc1N)c1c(Cl)ccc(F)c1Cl [Crizotinib] + Cn1cnc2c(F)c(Nc3ccc(Br)cc3Cl)c(C(=O)NOCCO)cc21 [Selumetinib] (first compound max 10 µM, 7x7, partner max 10 µM)",combination Emax,[1],0.99
same,combination Emax,[2],0.224
same,combination Emax,[3],0.412
same,combination Emax,[4],0.97
same,combination Emax,[5],0.622
same,combination Emax,[6],0.664
same,combination Emax,A375 (Melanoma) [7],0.938
same,combination Emax,[8],0.742
same,combination Emax,NCI-H2452 (Mesothelioma) [9],0.551
same,combination Emax,[10],0.838
same,combination Emax,[11],0.193
same,combination Emax,[12],0.58
same,combination Emax,[13],0.871
same,combination Emax,GCIY (Gastric Carcinoma) [14],0.46
same,combination Emax,[15],0.57
same,combination Emax,C32 (Melanoma) [16],0.995
same,combination Emax,[17],0.646
same,combination Emax,[18],0.472
same,combination Emax,SK-MEL-24 (Melanoma) [19],0.93
same,combination Emax,[20],0.369
same,combination Emax,[21],0.267
same,combination Emax,[22],0.136
same,combination Emax,MG-63 (Osteosarcoma) [23],0.672
same,Bliss excess,[24],-0.0606
same,Bliss excess,[25],-0.0633
same,Bliss excess,[26],-0.055
same,Bliss excess,[27],-0.0502
same,Bliss excess,[28],-0.0443
same,Bliss excess,[29],0.0062
same,Bliss excess,A375 (Melanoma) [30],0.0035
same,Bliss excess,[31],-0.027
same,Bliss excess,NCI-H2452 (Mesothelioma) [32],-0.0494
same,Bliss excess,[33],-0.045
same,Bliss excess,[34],-0.0392
same,Bliss excess,[35],-0.108
same,Bliss excess,[36],0.0316
same,Bliss excess,GCIY (Gastric Carcinoma) [37],-0.0266
same,Bliss excess,[38],-0.0007
same,Bliss excess,C32 (Melanoma) [39],0.0411
same,Bliss excess,[40],-0.0653
same,Bliss excess,[41],-0.0146
same,Bliss excess,SK-MEL-24 (Melanoma) [42],-0.0034
same,Bliss excess,[43],-0.042
same,Bliss excess,[44],0.0011
same,Bliss excess,[45],-0.0088
same,Bliss excess,MG-63 (Osteosarcoma) [46],-0.0017
